Experimental data: the supplement of paper PMC9663587

Columns and labels:
Assay in all cases: GRmax, 72 h; higher = less effect;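 also: breast cell lines in 384-well plates, nine doses across a 10^4 range, Dye Drop imaging of viable cells vs DMSO and time-zero plates, GR 0 means no net growth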
SUM44PE = tested on: SUM44PE
MDAMB361 = tested on: MDAMB361
UACC812 = tested on: UACC812
MDAMB468 = tested on: MDAMB468
MCF7 = tested on: MCF7
HTERT_HME1 = tested on: HTERT_HME1
184A1 = tested on: 184A1
BT474 = tested on: BT474
MCF12A = tested on: MCF12A
SUM229PE = tested on: SUM229PE
T47D = tested on: T47D
HCC1954 = tested on: HCC1954
PDX1328 = tested on: PDX1328

Structure (SMILES) | GRmax, 72 h (SUM44PE) [GR] | GRmax, 72 h (MDAMB361) [GR] | GRmax, 72 h (UACC812) [GR] | GRmax, 72 h (MDAMB468) [GR] | GRmax, 72 h (MCF7) [GR] | GRmax, 72 h (HTERT_HME1) [GR] | GRmax, 72 h (184A1) [GR] | GRmax, 72 h (BT474) [GR] | GRmax, 72 h (MCF12A) [GR] | GRmax, 72 h (SUM229PE) [GR] | GRmax, 72 h (T47D) [GR] | GRmax, 72 h (HCC1954) [GR] | GRmax, 72 h (PDX1328) [GR] | GRmax, 72 h (MDAMB361; main component drawn) [GR] | GRmax, 72 h (MDAMB468; main component drawn) [GR] | GRmax, 72 h (MCF7; main component drawn) [GR] | GRmax, 72 h (HTERT_HME1; main component drawn) [GR] | GRmax, 72 h (T47D; main component drawn) [GR] | GRmax, 72 h (HCC1954; main component drawn) [GR] | GRmax, 72 h (PDX1328; main component drawn) [GR]
C[C@@H]1COCCN1c1cc(C2([S@](C)(=N)=O)CC2)nc(-c2cc[nH]c3nccc2-3)n1 [AZD6738] (max 10 µM) | -0.206 | -0.166 | 0.305 | 0.529 | 0.0472 | 0.287 | 0.518 | 0.267 | -0.0672 | -0.0688 | 0.745 | 0.15 | 0.299 | – | – | – | – | – | – | –
NC(=O)Nc1cc(-c2cccc(F)c2)sc1C(=O)N[C@H]1CCCNC1 [AZD7762] (max 10 µM) | -0.704 | -0.675 | -0.8 | -0.586 | -0.186 | -0.478 | -0.513 | 0.0014 | -0.211 | -0.357 | -0.0573 | -0.398 | -0.578 | – | – | – | – | – | – | –
Cc1nc(NC(=O)N2CCC[C@H]2C(N)=O)sc1-c1ccnc(C(C)(C)C(F)(F)F)c1 [Alpelisib/BYL719] (max 10 µM) | -0.341 | -0.799 | -0.0521 | 0.714 | 0.0207 | 0.307 | 0.431 | -0.809 | 0.825 | 0.523 | -0.0332 | -0.341 | 0.203 | – | – | – | – | – | – | –
CN(C)C/C=C/C(=O)Nc1ccc(O[C@@H]2CCC[C@@H](Nc3ncc(Cl)c(-c4c[nH]c5ccccc45)n3)C2)cc1 [BSJ-01-175] (max 10 µM) | -0.873 | -0.804 | -0.92 | -0.617 | -0.627 | -0.28 | -0.452 | -0.962 | -0.292 | -0.77 | -0.719 | -0.652 | -0.254 | – | – | – | – | – | – | –
CC(=O)c1c(C)c2cnc(Nc3ccc(N4CCN(CCOCCOCCOCCNC(=O)COc5cccc6c5C(=O)N(C5CCC(=O)NC5=O)C6=O)CC4)cn3)nc2n(C2CCCC2)c1=O (stereo not drawn) [BSJ-03-123] (max 10 µM) | 0.289 | -0.0849 | -0.312 | -0.0298 | -0.323 | -0.153 | -0.137 | -0.0209 | 0.129 | 0.132 | 0.0948 | 0.0033 | 0.28 | – | – | – | – | – | – | –
CC(C)Nc1cc(-c2c[nH]c(C(=O)N[C@H](CO)c3cccc(Cl)c3)c2)c(Cl)cn1 [BVD523] (max 10 µM) | -0.0062 | 0.27 | 0.176 | 0.402 | 0.334 | 0.001 | 0.046 | 0.977 | 0.104 | 0.265 | 0.217 | 0.264 | 0.752 | – | – | – | – | – | – | –
Cc1c(N)nc([C@H](CC(N)=O)NC[C@H](N)C(N)=O)nc1C(=O)N[C@H](C(=O)N[C@H](C)[C@@H](O)[C@H](C)C(=O)N[C@H](C(=O)NCCc1nc(-c2nc(C(=O)NCCC[S+](C)C)cs2)cs1)[C@@H](C)O)[C@@H](OC1OC(CO)C(O)C(O)C1OC1OC(CO)C(O)C(OC(N)=O)C1O)c1cnc[nH]1 (stereo partly drawn) [Bleomycin] (max 10 µM) | – | – | – | – | – | – | – | – | – | – | – | – | – | -0.266 | -0.21 | -0.0459 | -0.111 | -0.084 | -0.0884 | 0.306
Nc1cc(C(F)(F)F)c(-c2cc(N3CCOCC3)nc(N3CCOCC3)n2)cn1 [Buparlisib/NVP-BKM120] (max 10 µM) | -0.611 | -0.958 | -0.822 | -0.516 | -0.269 | -0.241 | -0.0111 | -0.851 | -0.113 | -0.285 | -0.418 | -0.458 | -0.351 | – | – | – | – | – | – | –
